The values that follow come from patent publication US20100093763A1, “PHENYL SUBSTITUTED THIENO[2,3-d]PYRIMIDINES AND THEIR USE AS ADENOSINE A2a RECEPTOR ANTAGONISTS” (priority 2008, published 2010).

Experiment [1] addresses T1, human adenosine A2a receptor (Homo sapiens, UniProt P29274).
T1 construct: expressed in transfected cells; host or cells: CHO-K1 cells with cAMP inducible beta-galactosidase reporter gene
Briefly: Adenosine A2a Receptor Functional Assay (A2AGAL2). In kind it is cell-based. The following applies: CHO-K1 cells overexpressing human A2a receptor, cAMP inducible beta-galactosidase reporter, 15 nM NECA agonist challenge. As for the experimental part:
Adenosine A2a Receptor Functional Assay (A2AGAL2)
To initiate the functional assay, cryopreserved CHO—K1 cells overexpressing the human adenosine A2a receptor and containing a cAMP inducible beta-galactosidase reporter gene were thawed, centrifuged, DMSO containing media removed, and then seeded with fresh culture media into clear 384-well tissue culture treated plates (BD #353961) at a concentration of 10K cells/well. Prior to assay, these plates were cultured for two days at 37° C., 5% CO2, 90% Rh. On the day of the functional assay, culture media was removed and replaced with 45 uL assay medium (Hams/F-12 Modified (Mediatech #10-080CV) supplemented w/0.1% BSA). Test compounds were diluted and 11 point curves created at a 1000× concentration in 100% DMSO. Immediately after addition of assay media to the cell plates, 50 nL of the appropriate test compound antagonist or agonist control curves were added to cell plates using a Cartesian Hummingbird. Compound curves were allowed to incubate at room temperature on cell plates for approximately 15 minutes before addition of a 15 nM NECA (Sigma E2387) agonist challenge (5 uL volume). A control curve of NECA, a DMSO/Media control, and a single dose of Forskolin (Sigma F3917) were also included on each plate. After additions, cell plates were allowed to incubate at 37° C., 5% CO2, 90% Rh for 5.5-6 hours. After incubation, media was removed, and cell plates were washed 1× 50 uL with DPBS w/o Ca & Mg (Mediatech 21-031-CV). Into dry wells, 20 uL of 1× Reporter Lysis Buffer (Promega E3971 (diluted in dH2O from 5× stock)) was added to each well and plates frozen at −20° C. overnight. For β-galactosidase enzyme calorimetric assay, plates were thawed out at room temperature and 20 μL 2× assay buffer (Promega) was added to each well. Color was allowed to develop at 37° C., 5% CO2, 90% Rh for 1-1.5 h or until reasonable signal appeared. The calorimetric reaction was stopped with the addition of 60 μL/well 1M sodium carbonate. Plates were counted at 405 nm on a SpectraMax Microplate Reader (Molecular Devices). Data was analyzed in Microsoft Excel and IC/EC50 curves were fit using a standardized macro.

In experiment [2] the target is T2, human adenosine A1 receptor (Homo sapiens, UniProt P30542).
T2 construct: expressed in transfected cells; host or cells: CHO-K1 cells with cAMP inducible beta-galactosidase reporter gene
T2 sequence (P30542 1-326): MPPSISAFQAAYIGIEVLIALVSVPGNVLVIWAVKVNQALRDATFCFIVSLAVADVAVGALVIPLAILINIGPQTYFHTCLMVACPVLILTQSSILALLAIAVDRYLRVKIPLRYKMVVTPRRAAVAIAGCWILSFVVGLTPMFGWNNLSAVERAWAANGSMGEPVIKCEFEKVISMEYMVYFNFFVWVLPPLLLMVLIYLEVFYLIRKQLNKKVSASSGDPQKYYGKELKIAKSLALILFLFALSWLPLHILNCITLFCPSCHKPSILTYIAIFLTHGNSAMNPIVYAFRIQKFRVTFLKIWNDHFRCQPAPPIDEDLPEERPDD
The experiment is described as follows: Adenosine A1 Receptor Functional Assay (A1GAL2). The following applies: CHO-K1 cells overexpressing human A1 receptor, cAMP inducible beta-galactosidase reporter, 4 nM r-PIA/1 uM Forskolin agonist challenge. In kind it is cell-based. As for the experimental part: Adenosine A1 Receptor Functional Assay (A1GAL2)
To initiate the functional assay, cryopreserved CHO—K1 cells overexpressing the human adenosine A1 receptor and containing a cAMP inducible beta-galactosidase reporter gene were thawed, centrifuged, DMSO containing media removed, and then seeded with fresh culture media into clear 384-well tissue culture treated plates (BD #353961) at a concentration of 10K cells/well. Prior to assay, these plates were cultured for two days at 37° C., 5% CO2, 90% Rh. On the day of the functional assay, culture media was removed and replaced with 45 uL assay medium (Hams/F-12 Modified (Mediatech #10-080CV) supplemented w/0.1% BSA). Test compounds were diluted and 11 point curves created at a 1000× concentration in 100% DMSO. Immediately after addition of assay media to the cell plates, 50 nL of the appropriate test compound antagonist or agonist control curves were added to cell plates using a Cartesian Hummingbird. Compound curves were allowed to incubate at room temperature on cell plates for approximately 15 minutes before addition of a 4 nM r-PIA (Sigma P4532)/1 uM Forskolin (Sigma F3917) agonist challenge (5 uL volume). A control curve of r-PIA in 1 uM Forskolin, a DMSO/Media control, and a single dose of Forskolin were also included on each plate. After additions, cell plates were allowed to incubate at 37° C., 5% CO2, 90% Rh for 5.5-6 hours. After incubation, media was removed, and cell plates were washed lx 5OuL with DPBS w/o Ca & Mg (Mediatech 21-031-CV).
Into dry wells, 20 uL of 1× Reporter Lysis Buffer (Promega E3971 (diluted in dH2O from 5× stock)) was added to each well and plates frozen at −20° C. overnight. For β-galactosidase enzyme calorimetric assay, plates were thawed out at room temperature and 20 μL 2× assay buffer (Promega) was added to each well. Color was allowed to develop at 37° C., 5% CO2, 90% Rh for 1-1.5 h or until reasonable signal appeared. The calorimetric reaction was stopped with the addition of 60 μL/well 1M sodium carbonate. Plates were counted at 405 nm on a SpectraMax Microplate Reader (Molecular Devices). Data was analyzed in Microsoft Excel and IC/EC50 curves were fit using a standardized macro.

Experiment [3] addresses T3, human A2a adenosine receptor (Homo sapiens, UniProt P29274).
T3 construct: purchased PerkinElmer RB-HA2a; host or cells: HEK293 cells (plasma membrane preparation)
The experiment is described as follows: Ligand Binding Assay for Adenosine A2a Receptor (A2A-B). The following applies: plasma membrane of HEK293 cells containing human A2a receptor, radioligand [3H]CGS21680. As for the experimental part:
Ligand Binding Assay for Adenosine A2a Receptor
Ligand binding assay of adenosine A2a receptor was performed using plasma membrane of HEK293 cells containing human A2a adenosine receptor (PerkinElmer, RB-HA2a) and radioligand [^3H]CGS21680 (PerkinElmer, NET1021). Assay was set up in 96-well polypropylene plate in total volume of 200 μL by sequentially adding 20 μL1:20 diluted membrane, 130 μL assay buffer (50 mM Tris•HCl, pH7.4 10 mM MgCl2, 1 mM EDTA) containing [^3H] CGS21680, 50 μL diluted compound (4×) or vehicle control in assay buffer. Nonspecific binding was determined by […] NECA. Reaction was carried out at room temperature for 2 hours before filtering through 96-well GF/C filter plate pre-soaked in 50 mM Tris•HCl, pH7.4 containing 0.3% polyethylenimine. Plates were then washed 5 times with cold 50 mM Tris•HCl, pH7.4, dried and sealed at the bottom. Microscintillation fluid 30 μL was added to each well and the top sealed. Plates were counted on Packard Topcount for [^3H]. Data was analyzed in Microsoft Excel and GraphPad Prism programs. (Varani, K.; Gessi, S.; Dalpiaz, A.; Borea, P. A. British Journal of Pharmacology, 1996, 117, 1693)

Counter-ions that a name gives are not always drawn. Some results are limits rather than exact numbers.

T3 sequence (P29274 whole entry): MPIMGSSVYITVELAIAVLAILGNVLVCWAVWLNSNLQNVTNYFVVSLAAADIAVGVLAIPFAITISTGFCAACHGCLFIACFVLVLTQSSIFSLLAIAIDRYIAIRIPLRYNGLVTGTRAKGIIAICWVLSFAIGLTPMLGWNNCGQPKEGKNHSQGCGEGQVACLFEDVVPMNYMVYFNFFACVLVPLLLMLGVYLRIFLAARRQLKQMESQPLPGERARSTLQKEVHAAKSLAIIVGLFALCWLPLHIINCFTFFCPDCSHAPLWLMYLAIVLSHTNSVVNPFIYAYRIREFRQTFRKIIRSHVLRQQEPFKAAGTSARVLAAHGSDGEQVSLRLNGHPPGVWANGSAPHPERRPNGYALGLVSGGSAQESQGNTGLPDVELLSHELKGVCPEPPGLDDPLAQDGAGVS
T1 sequence (P29274 whole entry): as above

Consider `Nc1nc(-c2cccc(F)c2)nc2sc(Cc3ccccc3)cc12` [Example 14, 6-Benzyl-2-(3-fluoro-phenyl)-thieno[2,3-d]pyrimidin-4-ylamine], for which the Ki – broadly, the equilibrium dissociation constant of an inhibitor or competing ligand from its target – in experiment [1] is 42.2 nM; in experiment [2] it was 123 nM.
For `COc1ccccc1Cc1cc2c(N)nc(-c3cccc(F)c3)nc2s1` [Example 19, 2-(3-Fluoro-phenyl)-6-(2-methoxy-benzyl)-thieno[2,3-d]pyrimidin-4-ylamine], the Ki in experiment [1] was 62.4 nM; in experiment [3] it was 39.3 nM; in experiment [2], 418 nM.
`COc1ccccc1C(=O)c1cc2c(N)nc(-c3cccc(F)c3)nc2s1` [Example 21, [4-Amino-2-(3-fluoro-phenyl)-thieno[2,3-d]pyrimidin-6-yl]-(2-methoxy-phenyl)-methanone]: the Ki in experiment [1] came to 80.1 nM; in experiment [2] it was 162 nM.
Turning to `CC(c1ccccc1)c1cc2c(N)nc(-c3cccc(C#N)c3)nc2s1` (racemic) [Example 10, (±)-3-[4-Amino-6-(1-phenyl-ethyl)-thieno[2,3-d]pyrimidin-2-yl]-benzonitrile], the Ki came to 340 nM in experiment [1] and 1770 nM in experiment [2].
The matching figures for `COc1ccccc1-c1nc(N)c2cc(Cc3ccccc3)sc2n1` [Example 11, 6-Benzyl-2-(2-methoxy-phenyl)-thieno[2,3-d]pyrimidin-4-ylamine]: 217 nM and 374 nM.
As for `N#Cc1cccc(-c2nc(N)c3cc(Cc4ccccc4)sc3n2)c1` [Example 1, 3-(4-Amino-6-benzyl-thieno[2,3-d]pyrimidin-2-yl)-benzonitrile], the Ki turned out to be 10.6 nM in experiment [1], 16.8 nM in experiment [3] and 205 nM in experiment [2].
In the case of `Nc1nc(-c2cccc(F)c2)nc2sc(Cc3cc(F)cc(F)c3)cc12` [Example 20, 6-(3,5-Difluoro-benzyl)-2-(3-fluoro-phenyl)-thieno[2,3-d]pyrimidin-4-ylamine], the Ki in experiment [1] came to 188 nM; in experiment [2] it was 564 nM.
In the same order, the values of `N#Cc1cccc(-c2nc(N)c3cc(CCc4ccccc4)sc3n2)c1` [Example 2, 3-(4-Amino-6-phenethyl-thieno[2,3-d]pyrimidin-2-yl)-benzonitrile] are 802 nM and 4640 nM.
Turning to `C=C(c1ccccc1)c1cc2c(N)nc(-c3cccc(C#N)c3)nc2s1` [Example 5, 3-[4-Amino-6-(1-phenyl-vinyl)-thieno[2,3-d]pyrimidin-2-yl]-benzonitrile], the Ki in experiment [1] is 63.4 nM; in experiment [2] it was greater than 1040 nM.
The matching figures for `N#Cc1cccc(-c2nc(N)c3cc(C4(c5ccccc5)CC4)sc3n2)c1` [Example 6, 3-[4-Amino-6-(1-phenyl-cyclopropyl)-thieno[2,3-d]pyrimidin-2-yl]-benzonitrile]: 222 nM and greater than 610 nM.
On to `COc1cccc(-c2nc(N)c3cc(Cc4ccccc4)sc3n2)c1` [Example 13, 6-Benzyl-2-(3-methoxy-phenyl)-thieno[2,3-d]pyrimidin-4-ylamine hydrochloride], for which the Ki was 118 nM in experiment [1] and 266 nM in experiment [2].
The matching figures for `COc1ccccc1C(=O)c1cc2c(N)nc(-c3cccc(OC(F)(F)F)c3)nc2s1` [Example 18, [4-Amino-2-(3-trifluoromethoxy-phenyl)-thieno[2,3-d]pyrimidin-6-yl]-(2-methoxy-phenyl)-methanone]: 175 nM and 865 nM.
In the same order, the values of `Nc1nc(-c2cccc(C(F)(F)F)c2)nc2sc(Cc3ccccc3)cc12` [Example 12, 6-Benzyl-2-(3-trifluoromethyl-phenyl)-thieno[2,3-d]pyrimidin-4-ylamine] are 1020 nM and greater than 1040 nM.
With `COc1ccccc1Cc1cc2c(N)nc(-c3cccc(C#N)c3)nc2s1` [Example 9, 3-[4-Amino-6-(2-methoxy-benzyl)-thieno[2,3-d]pyrimidin-2-yl]-benzonitrile], the inhibitory constant (Ki) in experiment [1] worked out at 6.15 nM; in experiment [3], 12.5 nM; in experiment [2], 129 nM.
On to `N#Cc1cccc(-c2nc(N)c3cc(Cc4ccccc4OC(F)(F)F)sc3n2)c1` [Example 15, 3-[4-Amino-6-(2-trifluoromethoxy-benzyl)-thieno[2,3-d]pyrimidin-2-yl]-benzonitrile], for which the figures for the Ki in experiment [1] and in experiment [2] were 39.1 nM and 1010 nM, respectively.
Regarding `COc1ccccc1C(=O)c1cc2c(N)nc(-c3cccc(C#N)c3)nc2s1` [Example 17, 3-[4-Amino-6-(2-methoxy-benzoyl)-thieno[2,3-d]pyrimidin-2-yl]-benzonitrile], the inhibition constant (Ki) in experiment [1] stood at 23 nM; in experiment [2], 1040 nM.
